≈ marks a conversion by molar mass, not a printed value.
Assay: Water solubility
Format: physicochemical

SMILES	solubility [µg/mL]	solubility in water
COC(=O)c1ccc2c(c1)NC(=O)/C2=C(\Nc1ccc(N(C)C(=O)CN2CCN(C)CC2)cc1)c1ccccc1 [nintedanib esylate]	2800 (≈ 5.19 mM)	–
COC(=O)c1ccc2c(c1)NC(=O)/C2=C(\Nc1ccc(N(C)C(=O)CN2CCN(C)CC2)cc1)c1ccccc1 [free base of nintedanib, 3-Z-[1-(4-(N-((4-methyl-piperazin-1-yl)-methylcarbonyl)-N-methyl-amino)-anilino)-1-phenyl-methylene]-6-methoxycarbonyl-2-indolinone]	–	very poor
